SMILES strings stand for the structures.

The assay deals with Lethal factor protease (Bacillus anthracis, UniProt P15917). Kind of assay: biochemical. Particulars: LF (FRET) Ki^app.
Lethal factor protease, sequence (P15917 34-809 limits assumed): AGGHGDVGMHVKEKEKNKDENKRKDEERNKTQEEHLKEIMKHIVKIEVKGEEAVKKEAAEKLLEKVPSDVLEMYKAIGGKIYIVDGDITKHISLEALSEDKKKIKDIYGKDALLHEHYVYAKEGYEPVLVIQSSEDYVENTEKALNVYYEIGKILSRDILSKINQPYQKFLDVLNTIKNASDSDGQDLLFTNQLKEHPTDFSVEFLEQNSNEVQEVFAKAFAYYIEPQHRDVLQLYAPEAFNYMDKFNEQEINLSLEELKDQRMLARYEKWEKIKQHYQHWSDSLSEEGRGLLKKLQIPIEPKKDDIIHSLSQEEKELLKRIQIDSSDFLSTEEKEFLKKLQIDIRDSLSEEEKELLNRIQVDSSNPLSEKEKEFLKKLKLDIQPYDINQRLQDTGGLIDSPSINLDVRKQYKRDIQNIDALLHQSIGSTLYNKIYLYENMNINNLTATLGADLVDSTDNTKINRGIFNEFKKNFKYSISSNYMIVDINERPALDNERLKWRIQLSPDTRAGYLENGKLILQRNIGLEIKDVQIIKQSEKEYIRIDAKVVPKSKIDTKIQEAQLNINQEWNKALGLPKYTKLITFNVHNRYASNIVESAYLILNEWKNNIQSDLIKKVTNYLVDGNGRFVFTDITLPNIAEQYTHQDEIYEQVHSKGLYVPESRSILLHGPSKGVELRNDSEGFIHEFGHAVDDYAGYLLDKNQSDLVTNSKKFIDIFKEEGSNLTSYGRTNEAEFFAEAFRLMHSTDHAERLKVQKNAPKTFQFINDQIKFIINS
The compound `CO[C@H](C[C@H](CCCCNCc1cc2ccccc2s1)C(=O)NO)c1ccc(F)cc1` [Compound 168231, (S)-6-(benzo[b]thiophen-2-ylmethylamino)-2-((R)-2-(4-fluorophenyl)-2-methoxyethyl)-N-hydroxyhexanamide] returned a Ki of 0.32 µM. With `CCC[C@H](C[C@@H](OC)c1ccc(F)c(C)c1)C(=O)NO` [Compound 167674, (2R)-2-((2R)-2-(4-fluoro-3-methylphenyl)-2-methoxyethyl)-N-hydroxypentanamide] the figure was 24 µM. With `CO[C@H](C[C@@H](CCCc1ccccc1)C(=O)NO)c1ccc(F)cc1` [Compound 167395, (2R)-2-((2R)-2-(4-fluorophenyl)-2-methoxyethyl)-N-hydroxy-5-phenylpentanamide] the figure was 78.6 µM. With `CO[C@H](C[C@H](CCCCNCC1CCCCC1)C(=O)NO)c1ccc(F)cc1` [Compound 168227, (S)-6-(cyclohexylmethylamino)-2-((R)-2-(4-fluorophenyl)-2-methoxyethyl)-N-hydroxyhexanamide] the figure was 0.69 µM.

In turn, `CO[C@H](C[C@H](CCN(C)c1cccc(-c2ccc(F)c(C)c2)c1)C(=O)NO)c1ccc(F)cc1` [Compound 168007, (2S,4R)-2-(2-((4′-fluoro-3′-methylbiphenyl-3-yl)(methyl)amino)ethyl)-4-(4-fluorophenyl)-N-hydroxy-4-methoxybutanamide] showed a Ki of 19.5 µM.

Regarding `CCOC(CCC(=O)NO)c1ccc(F)cc1` (racemic) [Compound 167173, 4-ethoxy-4-(4-fluorophenyl)-N-hydroxybutanamide], the Ki turned out to be 171 µM.

`COC(CCC(=O)NO)c1ccc(Cl)cc1` (stereo not drawn) [Compound 167460, 4-(4-chlorophenyl)-N-hydroxy-4-methoxybutanamide] gave a Ki of 52.3 µM. With `CO[C@H](C[C@H](CCN(C)Cc1ccc(F)cc1)C(=O)NO)c1ccc(F)cc1` [Compound 167795, (2S,4R)-2-(2-((4-fluorobenzyl)(methyl)amino)ethyl)-4-(4-fluorophenyl)-N-hydroxy-4-methoxybutanamide] the figure was 2.1 µM. With `CO[C@H](C[C@H](CC1CC1)C(=O)NO)c1ccc(F)cc1` [Compound 167433, (2S,4R)-2-(cyclopropylmethyl)-4-(4-fluorophenyl)-N-hydroxy-4-methoxybutanamide] the figure was 1.4 µM; with `O=C(CCC(OCc1ccccc1)c1ccc(F)cc1)NO` (racemic) [Compound 167151, 4-(benzyloxy)-4-(4-fluorophenyl)-N-hydroxybutanamide], 130 µM; with `CCN(CC)CC[C@@H](C[C@@H](OC)c1ccc(F)cc1)C(=O)NO` [Compound 167995, (2S,4R)-2-(2-(diethylamino)ethyl)-4-(4-fluorophenyl)-N-hydroxy-4-methoxybutanamide], 2.2 µM.

On to `COC(CCC(=O)NO)c1ccc(-c2ccccc2)cc1` (stereo not drawn) [Compound 167506, 4-(biphenyl-4-yl)-N-hydroxy-4-methoxybutanamide], for which the Ki turned out to be 85.1 µM. With `CO[C@H](C[C@H](CCN(C)Cc1ccccc1)C(=O)NO)c1ccc(F)cc1` [Compound 167785, (2S,4R)-2-(2-(benzyl(methyl)amino)ethyl)-4-(4-fluorophenyl)-N-hydroxy-4-methoxybutanamide] the figure was 2 µM; with `CO[C@H](C[C@H](C/C=C/C(c1ccccc1)c1ccccc1)C(=O)NO)c1ccc(F)cc1` [Compound 167371, (2S,4E)-2-((2R)-2-(4-fluorophenyl)-2-methoxyethyl)-N-hydroxy-6,6-diphenylhex-4-enamide], 14 µM. With `CO[C@H](C[C@H](CCCCNCc1cccc(-c2ccc(F)cc2)c1)C(=O)NO)c1ccc(F)cc1` [Compound 168230, (S)-6-((4′-fluorobiphenyl-3-yl)methylamino)-2-((R)-2-(4-fluorophenyl)-2-methoxyethyl)-N-hydroxyhexanamide] the figure was 0.45 µM; with `CO[C@@H](CCC(=O)NO)c1ccc(F)cc1` [Compound 167205, (S)-4-(4-fluorophenyl)-N-hydroxy-4-methoxybutanamide], 225 µM. With `CO[C@H](C[C@H](CCN1CCCC(CO)C1)C(=O)NO)c1ccc(F)cc1` (stereo partly drawn) [Compound 167885, (2S,4R)-4-(4-fluorophenyl)-N-hydroxy-2-(2-(3-(hydroxymethyl)piperidin-1-yl)ethyl)-4-methoxybutanamide] the figure was 0.76 µM; with `CO[C@H](C[C@H](CCN1CCCCCC1)C(=O)NO)c1ccc(F)cc1` [Compound 167911, (2S,4R)-2-(2-(azepan-1-yl)ethyl)-4-(4-fluorophenyl)-N-hydroxy-4-methoxybutanamide], 69.5 µM. Turning to `CO[C@H](C[C@H](CCN1CCCCC1)C(=O)NO)c1ccc(F)cc1` [Compound 167889, (2S,4R)-4-(4-fluorophenyl)-N-hydroxy-4-methoxy-2-(2-(piperidin-1-yl)ethyl)butanamide], the Ki worked out at 1.5 µM. With `COC(CCC(=O)NO)c1cccc(C)c1` (stereo not drawn) [Compound 167491, N-hydroxy-4-methoxy-4-m-tolylbutanamide] the figure was 176 µM. Consider `COC(CC(Cc1ccccc1)C(=O)NO)c1ccc(F)cc1` (stereo not drawn) [Compound 167285], for which the Ki was > 300 µM. With `CO[C@H](C[C@H](CCCCNCc1ccc(F)c(C)c1)C(=O)NO)c1ccc(F)cc1` [Compound 168136, (S)-6-(4-fluoro-3-methylbenzylamino)-2-((R)-2-(4-fluorophenyl)-2-methoxyethyl)-N-hydroxyhexanamide] the figure was 0.19 µM. With `CO[C@H](CCC(=O)NO)c1ccc(F)c(C)c1` [Compound 167223, (R)-4-(4-fluoro-3-methylphenyl)-N-hydroxy-4-methoxybutanamide] the figure was 11.9 µM. With `CCC[C@@H](C[C@@H](OC)c1ccc(F)cc1)C(=O)NO` [Compound 167432, (S)-2-((R)-2-(4-fluorophenyl)-2-methoxyethyl)-N-hydroxypentanamide] the figure was 1.57 µM; with `COC(CCC(=O)NO)c1cccc(F)c1` (stereo not drawn) [Compound 167456, 4-(3-fluorophenyl)-N-hydroxy-4-methoxybutanamide], 51.6 µM. In the case of `CO[C@H](C[C@H](CCN(C)Cc1ccc(Br)cc1)C(=O)NO)c1ccc(F)cc1` [Compound 168015], the Ki stood at 2.2 µM. Turning to `CO[C@H](C[C@H](CCN(c1ccccc1)c1ccccc1)C(=O)NO)c1ccc(F)cc1` [Compound 167796, (2S)-(2-Diphenylamino-ethyl)-(4R)-(4-fluoro-phenyl)-N-hydroxy-4-methoxy-butyramide], the Ki came to 2.1 µM. As to `CO[C@H](C[C@H](CCN(C)Cc1ccc(-c2ccc(F)c(C)c2)cc1)C(=O)NO)c1ccc(F)cc1` [Compound 168037, (2S,4R)-2-(2-(((4′-fluoro-3′-methylbiphenyl-4-yl)methyl)(methyl)amino)ethyl)-4-(4-fluorophenyl)-N-hydroxy-4-methoxybutanamide], the Ki is 0.68 µM.

`COC(CCC(=O)NO)c1ccc(C)c(F)c1` (stereo not drawn) [Compound 167463, 4-(3-fluoro-4-methylphenyl)-N-hydroxy-4-methoxybutanamide] came in with a Ki of 65.6 µM.

Take `CCCC[C@@H](C[C@H](OC)c1ccc(F)cc1)C(=O)NO` [Compound 167390, (25)-2-((2S)-2-(4-fluorophenyl)-2-methoxyethyl)-N-hydroxyhexanamide]: the Ki is 224 µM.

`CO[C@H](C[C@H](CCN(C)Cc1cccc(Br)c1)C(=O)NO)c1ccc(F)cc1` [Compound 168001, (2S,4R)-2-(2-((3-bromobenzyl)(methyl)amino)ethyl)-4-(4-fluorophenyl)-N-hydroxy-4-methoxybutanamide] yielded a Ki of 1.2 µM. As for `CO[C@H](C[C@H](CCN(Cc1ccccc1)Cc1ccccc1)C(=O)NO)c1ccc(F)cc1` [Compound 167996, (2S,4R)-2-(2-(dibenzylamino)ethyl)-4-(4-fluorophenyl)-N-hydroxy-4-methoxybutanamide], the Ki was determined as 33.4 µM. Compound `COc1ccc(C(CCC(=O)NO)OC)cc1` (stereo not drawn) [Compound 167457, N-hydroxy-4-methoxy-4-(4-methoxyphenyl)butanamide] had a Ki of 193 µM. With `COC(CC(Cc1ccccc1)C(=O)NO)c1ccc(F)cc1` (stereo not drawn) [Compound 167286, 2-Benzyl-4-(4-fluorophenyl)-N-hydroxy-4-methoxy-butyramide] the figure was 168 µM; with `CCCC[C@@H](C[C@@H](OC)c1ccc(F)cc1)C(=O)NO` [Compound 167336, (S)-2-((R)-2-(4-fluorophenyl)-2-methoxyethyl)-N-hydroxyhexanamide], 1.9 µM. With `COC(CC(C)C(=O)NO)c1ccc(F)cc1` (stereo not drawn) [Compound 167288, 4-(4-Fluoro-phenyl)-N-hydroxy-4-methoxy-2-methyl-butyramide] the figure was 3.1 µM. With `CO[C@H](C[C@H](CCN(C)CCO)C(=O)NO)c1ccc(F)cc1` [Compound 167922] the figure was 1.49 µM. Compound `CCC[C@@H](C[C@@H](OC)c1ccc(F)c(C)c1)C(=O)NO` [Compound 167675, (2S)-2-((2R)-2-(4-fluoro-3-methylphenyl)-2-methoxyethyl)-N-hydroxypentanamide] showed a Ki of 2.6 µM. As to `CO[C@H](CCC(=O)NO)c1ccc(F)cc1` [Compound 167204, (R)-4-(4-fluorophenyl)-N-hydroxy-4-methoxybutanamide], the Ki stood at 7.9 µM. With `CO[C@H](C[C@H](CCCCNCCCc1ccc(F)cc1)C(=O)NO)c1ccc(F)cc1` [Compound 168222, (S)-2-((R)-2-(4-fluorophenyl)-2-methoxyethyl)-6-(3-(4-fluorophenyl)propylamino)-N-hydroxyhexanamide] the figure was 0.17 µM. With `CO[C@H](C[C@H](CCN(C)C/C=C/c1ccccc1)C(=O)NO)c1ccc(F)cc1` [Compound 168017, (2S,4R)-2-(2-(cinnamyl(methyl)amino)ethyl)-4-(4-fluorophenyl)-N-hydroxy-4-methoxybutanamide] the figure was 0.52 µM; with `CO[C@H](C[C@H](CCN1CCC[C@@H](CN2CCCCC2)C1)C(=O)NO)c1ccc(F)cc1` [Compound 168045, (2S,4R)-4-(4-fluorophenyl)-N-hydroxy-4-methoxy-2-(2-((S)-3-(piperidin-1-ylmethyl)piperidin-1-yl)ethyl)butanamide], 0.43 µM.

(Values after patent US8119692B2 (priority 2007, dated 2012).)
